# Legend:
# Mus musculus [1] = test: Evaluated for the prevention of TBZ ptosis by intraperitoneal administration in mice; assay type: functional; details: ip
# [2] = biological target: Muscarinic acetylcholine receptor; test: Inhibition of radioligand [3H]QNB binding (competitive inhibition) to muscarinic acetylcholine receptor in the rat forebrain in the absence of zinc
# Mus musculus [3] = test: Antagonistic activity against scopolamine-induced behavioral deficits in mice by subcutaneous administration at a concentration of 1.25 mg/kg; assay type: functional
# [4] = biological target: Muscarinic acetylcholine receptor; test: Inhibition of radioligand [3H]QNB binding to muscarinic acetylcholine receptor in the rat forebrain in the presence of zinc
# Mus musculus [5] = test: Antagonistic activity against scopolamine-induced behavioral deficits in mice by subcutaneous administration at a concentration of 2.5 mg/kg; assay type: functional
# Mus musculus [6] = test: Antagonistic activity against scopolamine-induced behavioral deficits in mice by subcutaneous administration at a concentration of 0.63 mg/kg; assay type: functional
# Mus musculus [7] = test: Antagonistic activity against scopolamine-induced behavioral deficits in mice by subcutaneous administration at a concentration of 5.0 mg/kg; assay type: functional
# Mus musculus [8] = test: Antagonistic activity against scopolamine-induced behavioral deficits in mice by subcutaneous administration at a concentration of 0.02 mg/kg; assay type: functional
# Mus musculus [9] = test: Antagonistic activity against scopolamine-induced behavioral deficits in mice by subcutaneous administration at a concentration of 0.31 mg/kg; assay type: functional
# Mus musculus [10] = test: Antagonistic activity against scopolamine-induced behavioral deficits in mice by subcutaneous administration at a concentration of 0.16 mg/kg; assay type: functional
# Mus musculus [11] = test: Antagonistic activity against scopolamine-induced behavioral deficits in mice by subcutaneous administration at a concentration of 0.04 mg/kg; assay type: functional
# Mus musculus [12] = test: (§1) Antagonistic activity against scopolamine-induced behavioral deficits in mice by subcutaneous administration at a concentration of 5 mg/kg; assay type: functional
# Mus musculus [13] = test: as §1; assay type: functional; remark: listed apart in the source
Structure (SMILES),ED50 (Mus musculus [1]),IC50 [2],Response (Mus musculus [3]),IC50 [4],Response (Mus musculus [5]),Response (Mus musculus [6]),Response (Mus musculus [7]),Response (Mus musculus [8]),Response (Mus musculus [9]),Response (Mus musculus [10]),Response (Mus musculus [11]),Response (Mus musculus [12]),Response (Mus musculus [13])
CCN(c1ccncc1)n1cccc1Cl,> 20 mg/kg,5.4 µM,36%,33 µM,27%,20%,–,–,–,–,–,–,–
CN(c1ccncc1)n1cccc1/C=C/c1ccccc1,> 20 mg/kg,1.6 µM,–,17 µM,20%,–,33%,–,–,–,–,–,–
C#CCN(c1ccncc1)n1cccc1,> 20 mg/kg,9 µM,–,76.4 µM,–,–,–,20%,27%,47%,27%,–,–
CN(c1ccncc1)n1cccc1C#N,> 20 mg/kg,24 µM,40%,295 µM,–,–,20%,–,–,–,–,–,–
CC(O)c1ccn(N(C)c2ccncc2)c1 (centres undefined),10 mg/kg,11 µM,27%,24 µM,–,–,–,–,20%,20%,–,–,–
CCCN(c1ccncc1)n1cccc1C=O,> 20 mg/kg,14 µM,–,51 µM,–,–,–,–,–,–,–,–,–
CCCN(c1ccncc1)n1cccc1,> 20 mg/kg,6.5 µM,–,21.5 µM,27%,27%,–,–,–,33%,–,–,–
c1ccn(Nc2ccncc2)c1,> 20 mg/kg,43 µM,–,184 µM,47%,21%,–,–,21%,–,–,36%,–
CN(c1ccncc1)n1cccc1,> 20 mg/kg,13 µM,–,70 µM,–,–,–,–,–,–,–,1%,29%
CN(c1ccncc1)n1cccc1C=O,> 20 mg/kg,24 µM,60%,52 µM,50%,27%,31%,–,53%,50%,–,–,–
CCN(c1ccncc1)n1cccc1,> 20 mg/kg,9.5 µM,–,120 µM,–,–,–,–,–,–,–,–,–
Clc1cccn1Nc1ccncc1,> 20 mg/kg,13 µM,–,76.2 µM,–,–,–,–,–,–,–,–,–
CN(c1ccncc1)n1cccc1Cl,> 20 mg/kg,6.9 µM,–,43 µM,–,–,–,–,–,–,–,–,–
CCc1cccn1N(C)c1ccncc1,> 20 mg/kg,6.4 µM,–,22 µM,–,20%,27%,–,–,–,–,–,–
CN(c1ccncc1)n1ccc(C=O)c1,> 20 mg/kg,33 µM,29%,185 µM,–,33%,47%,–,20%,–,–,–,–
O=Cc1cccn1Nc1ccncc1,> 20 mg/kg,86 µM,–,721 µM,–,43%,–,–,27%,20%,–,–,–
CN(c1ccncc1)n1cccc1CO,> 20 mg/kg,26 µM,–,39 µM,–,–,–,–,–,–,–,–,–
CCCN(c1ccncc1)n1ccc(C=O)c1,> 20 mg/kg,11 µM,–,138 µM,–,–,–,–,–,–,–,–,–
CCCN(c1ccncc1)n1cccc1Cl,> 20 mg/kg,2.6 µM,–,8.6 µM,27%,–,–,–,–,–,–,–,–
CN(c1ccncc1)n1cccc1CCc1ccccc1,> 20 mg/kg,3 µM,–,8.1 µM,–,–,–,–,33%,–,–,–,–
CC(=O)N(c1ccncc1)n1cccc1,–,–,–,> 1000 µM,–,–,–,–,–,–,–,–,–
C=CCN(c1ccncc1)n1cccc1,> 20 mg/kg,6.9 µM,–,27 µM,–,20%,–,–,–,20%,–,–,–
c1ccc(CN(c2ccncc2)n2cccc2)cc1,> 20 mg/kg,3.5 µM,–,13.5 µM,–,–,–,–,–,20%,–,–,–
CC(O)c1cccn1N(C)c1ccncc1 (centres undefined),> 20 mg/kg,23 µM,–,173 µM,–,–,–,–,–,–,–,–,–
CCCCN(c1ccncc1)n1cccc1,> 20 mg/kg,4 µM,–,12.5 µM,–,20%,–,–,–,–,–,–,–
CN(C)CCC=C1c2ccccc2CCc2ccccc21 [AMITRIPTYLINE],1.5 mg/kg,–,–,0.3 µM,–,–,–,–,–,–,–,–,–

# From ChEMBL document CHEMBL1129671, “Substituted (pyrroloamino)pyridines: potential agents for the treatment of Alzheimer's disease” (J Med Chem, 1996)
